This note sets out measurements from patent US20240051968A1, “METHODS FOR TREATING SPINOCEREBELLAR ATAXIA TYPE 3” (PTC Therapeutics, Inc., priority 2021, published 2024).

For orientation: IC50 means the concentration that gives 50% inhibition.

For one test, the system named is ATXN3 pre-mRNA. Description: RT-qPCR Assay to Quantify Exon 4 Skipping in ATXN3 pre-mRNA in Cells. The test is classed as cell-based. As to conditions: cells incubated with compound 24 h, 7-point concentration curve, GAPDH control. The procedure: RT-qPCR Assay to Quantify Exon 4 Skipping in ATXN3 pre-mRNA in Cells Test compounds were serially diluted 3.16-fold in 100% DMSO to generate a 7-point concentration curve. Aliquots of 0.5 μL of diluted compounds were transferred to a 96-well flat bottom plate by a liquid handler. An aliquot of 0.5 μL DMSO was also transferred to separate wells and used as controls. Duplicate samples were set up for each compound concentration and for the DMSO control.
Cells were thawed and incubated in cell culture media (DMEM, 10% FBS, and 1% antibiotic cocktail) for 72 h. Cells were trypsinized, counted, and re-suspended to a concentration of 100,000 cells/mL in cell culture media. A 100 μL aliquot of the cell suspensions were plated at 10,000 cells per well in the compound containing 96 well microtiter plate and incubated for in a cell culture incubator (37° C., 5% CO2, 100% relative humidity).
After 24 h, media was aspirated from the cells and 50 μL of the RCL2 lysis buffer (10 mM Tris-HCL pH 7.4, 150 mM NaCl, 0.33% IGEPAL® CA-630) was added to each well and incubated at room temperature for 1 min. Chilled nuclease free water (50 μL per well) was added and the plates were immediately transferred on ice. After 1 min on ice, plates were frozen at −80° C. overnight.
Preparation of RT-qPCR Reaction Mixture:
An aliquot of 2 μL/well of the cell lysates was transferred using the liquid handler to the Armadillo 384-Well PCR plate containing 8 μL/well of the RT-qPCR reaction mixture that was prepared as detailed above. The plates were then sealed with MicroAmp™ Optical Adhesive Film followed by spinning down for 1 min and placed in the CFX384 thermocycler (BioRad).
The RT-qPCR was carried out at the following temperatures for the indicated time: • Step 1: 48° C. (30 min) • Step 2: 95° C. (10 min) • Step 3: 95° C. (15 sec) • Step 4: 60° C. (1 min); then, repeated Steps 3 and 4 for a total of 40 cycles.
The percent exon 4 skipping was calculated for each dose of compound treatment using Equations 1 and 2.
Data were fit to a dose response curve and the IC50 was interpolated using XLfit® statistical and curve fitting package.
An IC50 value between >2.0 μM and ≤3.0 μM is indicated by one star (*). […] IC50 value between >0.5 μM and ≤1.0 μM is indicated by four stars (****). An IC50 value ≤0.5 μM is indicated by five stars (*****).

Test [1] relates to Total ATXN3 (tATXN3) protein. Description: Endogenous Total ATXN3 (tATXN3) Protein Assay (MSD immunoassay of cell lysates). The test is classed as cell-based. As to conditions: cells incubated with compound 48 h; 7-point concentration curve; MSD detection in cell lysate. The protocol:
Endogenous Total ATXN3 (tATXN3) Protein Assay
Meso Scale Discovery (MSD) 96-well or 384-well plates were coated overnight at 4° C. with Ataxin 3 mouse monoclonal antibody (Invitrogen, MA3-082) at a concentration of 0.5 μg/mL in PBS (30 μL per well). Plates were then washed three times with 300 μL wash buffer (0.05% TWEEN®-20, polyethylene glycol sorbitan monolaurate, in PBS) and blocked (Meso Scale Diagnostics, R93BA-1; 5% BSA in PBS) for 2 h at room temperature with rotational shaking and then washed three times with wash buffer.
Test compounds were serially diluted 3.16-fold in 100% DMSO to generate a 7-point concentration curve. Aliquots of 0.5 μL of diluted compounds were transferred to a 96-well flat bottom plate by a liquid handler. An aliquot of 0.5 μL DMSO was also transferred to separate wells and used as controls. Duplicate samples were set up for each compound concentration and for the DMSO control.
Cells were thawed and incubated in cell culture media (DMEM, 10% FBS, and 1% antibiotic cocktail) for 72 h. Cells were trypsinized, counted, and re-suspended to a concentration of 100,000 cells/mL in cell culture media. A 100 μL aliquot of the cell suspensions were plated at 10,000 cells per well in the compound containing 96 well microtiter plate and incubated for in a cell culture incubator (37° C., 5% CO2, 100% relative humidity). After 48 h, the medium was removed and 50-100 μL of lysis buffer (Meso Scale Diagnostics, R60TX-2) containing 1× halt protease inhibitor cocktail of (Thermo Scientific, Halt™ Protease Inhibitor Cocktail, 78430) per well was added to cells to provide a “cell lysate”. The plate was placed on a shaker at 4° C. for 30 minutes, then stored at −80° C.
Cell lysate samples (25 μL) were transferred to the antibody-coated MSD plate and incubated overnight at 4° C. After removal of the lysates, the plate was washed three times with wash buffer, and 25 μL of Ataxin 3 recombinant rabbit monoclonal antibody (Invitrogen, #702788) secondary antibody (diluted to 0.25 μg/mL in 0.05% TWEEN®-20 in blocking buffer) was added to each well and incubated with shaking for 1-2 h at room temperature. Following incubation with the secondary antibody, the wells were rinsed with wash buffer and then […] Anti Rabbit Antibody Goat SULFO-TAG Labeled (Meso Scale Diagnostics, R32AB-1) detecting antibody (diluted to 0.25 μg/mL in 0.05% TWEEN®-20 in blocking buffer) was added to each well and incubated with shaking for 1 h at room temperature. After rinsing three times with wash buffer, 150 μL of Read Buffer T with surfactant (tris-based buffer containing tripropylamine, Meso Scale Diagnostics, R92TC-1) were added to each empty well, and the plate was imaged on a SI 6000 imager (MSD) according to manufacturers' instructions provided for 96- or 384-well plates.

For `COC[C@H](N)Cc1sc2c(NCc3ccco3)cc(Cl)nc2c1C` [Cpd 45, 2-[(2R)-2-amino-3-methoxypropyl]-5-chloro-N-[(furan-2-yl)methyl]-3-methylthieno[3,2-b]pyridin-7-amine], the IC50 (with ATXN3 pre-mRNA; in test [1]) was at most 500 nM throughout.
On to `C[C@H](N)Cc1sc2c(NCc3ccco3)cc(Cl)nc2c1C1CC1` [Cpd 51, 2-[(2S)-2-aminopropyl]-5-chloro-3-cyclopropyl-N-[(furan-2-yl)methyl]thieno[3,2-b]pyridin-7-amine], for which the IC50 (in the test with ATXN3 pre-mRNA; in test [1]) was at most 500 nM each time.
With `C[C@H](N)Cc1sc2c(NCc3cccs3)cc(Cl)nc2c1Cl` [Cpd 52, 2-[(2S)-2-aminopropyl]-3,5-dichloro-N-[(thiophen-2-yl)methyl]thieno[3,2-b]pyridin-7-amine], the IC50 (with ATXN3 pre-mRNA; in test [1]) was at most 500 nM throughout.
Turning to `C[C@H](N)Cc1sc2c(NCc3cccs3)cc(Cl)nc2c1Br` [Cpd 53, 2-[(2S)-2-aminopropyl]-3-bromo-5-chloro-N-[(thiophen-2-yl)methyl]thieno[3,2-b]pyridin-7-amine], the IC50 (in the test on ATXN3 pre-mRNA; in test [1]) was at most 500 nM in each case.
Consider `Cc1c(C[C@H](C)N)sc2c(NCc3cccs3)cc(C#N)nc12` [Cpd 54, 2-[(2S)-2-aminopropyl]-3-methyl-7-{[(thiophen-2-yl)methyl]amino}thieno[3,2-b]pyridine-5-carbonitrile], for which the IC50 (with ATXN3 pre-mRNA; in test [1]) was at most 500 nM throughout.
As for `Cc1c(C[C@H](C)N)sc2c(NCc3nccs3)cc(Cl)nc12` [Cpd 57, 2-[(2S)-2-aminopropyl]-5-chloro-3-methyl-N-[(1,3-thiazol-2-yl)methyl]thieno[3,2-b]pyridin-7-amine], the half-inhibitory concentration (IC50) (with ATXN3 pre-mRNA; in test [1]) was at most 500 nM in each case.
`Cc1c(C[C@@H](N)CO)sc2c(NCc3ccco3)cc(Cl)nc12` [Cpd 58, (2R)-2-amino-3-(5-chloro-7-{[(furan-2-yl)methyl]amino}-3-methylthieno[3,2-b]pyridin-2-yl)propan-1-ol]: the IC50 (with ATXN3 pre-mRNA; in test [1]) was at most 500 nM in each case.
In the case of `Cc1c(C[C@H](N)CF)sc2c(NCc3ccco3)cc(Cl)nc12` [Cpd 59, 2-[(2S)-2-amino-3-fluoropropyl]-5-chloro-N-[(furan-2-yl)methyl]-3-methylthieno[3,2-b]pyridin-7-amine], the “IC50, exon 4 skipping in ATXN3 pre-mRNA” value with ATXN3 pre-mRNA was “inactive”. Moreover, the “IC50 (average), total ATXN3 protein” value in test [1] is “inactive”.
Regarding `Cc1c(C[C@@H](N)CC(C)C)sc2c(NCc3cccs3)cc(Cl)nc12` [Cpd 61, 2-[(2S)-2-amino-4-methylpentyl]-5-chloro-3-methyl-N-[(thiophen-2-yl)methyl]thieno[3,2-b]pyridin-7-amine], the IC50 (in the test with ATXN3 pre-mRNA; in test [1]) was at most 500 nM throughout.
For the compound `N[C@H](CF)Cc1sc2c(NCc3cccs3)cc(Cl)nc2c1Br` [Cpd 63, 2-[(2S)-2-amino-3-fluoropropyl]-3-bromo-5-chloro-N-[(thiophen-2-yl)methyl]thieno[3,2-b]pyridin-7-amine], the IC50 with ATXN3 pre-mRNA was 1500 to 2000 nM; in test [1], above 2000 nM.
On the same counts, the results for `N[C@@H](COC(F)(F)F)Cc1sc2c(NCc3nccs3)cc(Cl)nc2c1Br` [Cpd 64, 2-[(2R)-2-amino-3-(trifluoromethoxy)propyl]-3-bromo-5-chloro-N-[(1,3-thiazol-2-yl)methyl]thieno[3,2-b]pyridin-7-amine] are 500 to 1000 nM and 500 to 1000 nM.
In the case of `CC[C@H](N)Cc1sc2c(NCc3cccs3)cc(Cl)nc2c1Br` [Cpd 73, 2-[(2S)-2-aminobutyl]-3-bromo-5-chloro-N-[(thiophen-2-yl)methyl]thieno[3,2-b]pyridin-7-amine], the IC50 (in the test on ATXN3 pre-mRNA; in test [1]) was at most 500 nM in each case.
On to `N[C@@H](CCF)Cc1sc2c(NCc3cccs3)cc(Cl)nc2c1Br` [Cpd 74, 2-[(2S)-2-amino-4-fluorobutyl]-3-bromo-5-chloro-N-[(thiophen-2-yl)methyl]thieno[3,2-b]pyridin-7-amine], for which the IC50 (in the test with ATXN3 pre-mRNA; in test [1]) was at most 500 nM each time.
Turning to `N[C@@H](CF)Cc1sc2c(NCc3cccs3)cc(Cl)nc2c1Br` [Cpd 76, 2-[(2R)-2-amino-3-fluoropropyl]-3-bromo-5-chloro-N-[(thiophen-2-yl)methyl]thieno[3,2-b]pyridin-7-amine], the IC50 (in the test on ATXN3 pre-mRNA; in test [1]) was at most 500 nM each time.
Regarding `Cc1c(C[C@@H](N)CF)sc2c(NCc3ccco3)cc(Cl)nc12` [Cpd 81, 2-[(2R)-2-amino-3-fluoropropyl]-5-chloro-N-[(furan-2-yl)methyl]-3-methylthieno[3,2-b]pyridin-7-amine], the IC50 (in the test with ATXN3 pre-mRNA; in test [1]) was at most 500 nM throughout.
Regarding `CC[C@H](N)Cc1sc2c(NCc3cccs3)cc(Cl)nc2c1Cl` [Cpd 83, 2-[(2S)-2-aminobutyl]-3,5-dichloro-N-[(thiophen-2-yl)methyl]thieno[3,2-b]pyridin-7-amine], the IC50 (with ATXN3 pre-mRNA; in test [1]) was at most 500 nM each time.
Take `N[C@@H](CF)Cc1sc2c(NCc3cccs3)cc(Cl)nc2c1Cl` [Cpd 84, 2-[(2R)-2-amino-3-fluoropropyl]-3,5-dichloro-N-[(thiophen-2-yl)methyl]thieno[3,2-b]pyridin-7-amine]: the half-maximal inhibitory concentration (IC50) (in the test on ATXN3 pre-mRNA; in test [1]) was at most 500 nM in each case.
Consider `Cc1c(C[C@@H](N)CF)sc2c(NCc3cccs3)cc(Cl)nc12` [Cpd 91, 2-[(2R)-2-amino-3-fluoropropyl]-5-chloro-3-methyl-N-[(thiophen-2-yl)methyl]thieno[3,2-b]pyridin-7-amine], for which the IC50 lay within 2000 to 3000 nM with ATXN3 pre-mRNA and 1000 to 1500 nM in test [1].
On the same counts, the results for `Cc1c(C[C@@H](N)CCF)sc2c(NCc3cccs3)cc(Cl)nc12` [Cpd 92, 2-[(2S)-2-amino-4-fluorobutyl]-5-chloro-3-methyl-N-[(thiophen-2-yl)methyl]thieno[3,2-b]pyridin-7-amine] are at most 500 nM and at most 500 nM.
For the compound `N[C@@H](CCF)Cc1sc2c(NCc3ccco3)cc(Cl)nc2c1Cl` [Cpd 93, 2-[(2S)-2-amino-4-fluorobutyl]-3,5-dichloro-N-[(furan-2-yl)methyl]thieno[3,2-b]pyridin-7-amine], the IC50 (in the test with ATXN3 pre-mRNA; in test [1]) was at most 500 nM throughout.
Turning to `N[C@@H](CF)Cc1sc2c(NCc3ccco3)cc(Cl)nc2c1Cl` [Cpd 94, 2-[(2R)-2-amino-3-fluoropropyl]-3,5-dichloro-N-[(furan-2-yl)methyl]thieno[3,2-b]pyridin-7-amine], the IC50 (in the test with ATXN3 pre-mRNA; in test [1]) was at most 500 nM each time.
